Results on 1 molecule are retold here after US10842845B2, “Oxytocin improves treatment of obstructive sleep apnea” (THE GEORGE WASHINGTON UNIVERSITY, priority 2014, dated 2020).

The structures appear in SMILES notation.

Experiment [1] has as its system OXT receptors. Nature of the experiment: Calcium imaging in OXT receptor-expressing CHO cells on brainstem slices upon photoactivation of ChR2-containing PVN fibers. The conditions noted are these: from baseline during first second; CIH/H animals with daily injections of CNO (chronic OXT neuron activation); n=17; CIH/H alone 8.1±0.01%. It counts as cell-based, rat. Here is the method:
Visualization of CHO cells expressing OXT receptors and the calcium indicator, as well as ChR2-containing PVN fibers, were performed on a confocal microscope system as previously described (Gamer and Buchel, 2012). To examine activation of OXT receptors upon optogenetic activation of ChR2-expressing PVN fibers in the DMV, CHO cells were pipetted onto the dorsal motor nucleus (DMV) of brain stem slices from animals previously injected with pLenti-Syn-hChR2(H134R)-EYFP-WPRE into the PVN, OXT-sensitive CHO cells within the boundaries of the DMV and in close apposition to ChR2-containing PVN fibers (7.5±0.5 μm) were used for experiments.
1-2 weeks after telemetry implantation, DREADDs receptors on PVN OXT neurons were activated daily by intraperitoneal (IP) injection of clozapine-n-oxide (CNO, 1.0 mg/kg). To investigate the effects of CNO on resting BP and HR in both DREADDs-expressing and sham animals, 3 days prior to CIH/H exposure (control days) baseline BP and HR values were recorded for a 20 min period before CNO injection. Animals from each group then received an IP injection of CNO, BP and HR were recorded for 1 hr, and the animals then underwent exposure to air for 8 hr to achieve acclimation to the chambers. […]

Experiment [2] addresses T1, DREADDs receptors on PVN OXT neurons (Homo sapiens, UniProt P20309, A239G/Y149C).
T1 construct: mCherry (C); host or cells: PVN oxytocin neurons of Sprague-Dawley rats, in vivo, transduced with AAV2-hSyn-DIO-hM3D(Gq)-mCherry and rAAV1-OXT-Cre
Put plainly: MAP over 21 days of CIH/H exposure with daily PVN OXT neuron activation (daily CNO). The class given is in vivo, Sprague-Dawley rats. The conditions noted are these: n=8. An excerpt:
To record blood pressure and heart rate, male Sprague-Dawley rats, 3-4 weeks of age, were anesthetized using isoflurane (2-4%) and a HD-XII pressure transmitter was implanted (Data Sciences International, St Paul, Minn., USA) with its cathether inserted into the abdominal aorta to record pressure and EKG leads were attached subcutaneously to obtain EKG recordings and heart rate. All rats with telemetry devices were allowed 7-14 days to recover from transmitter implantation surgery before any measurements were recorded. Blood pressure and heart rate were recorded via radio-frequency signals obtained through the Ponemah data acquisition system (Data Sciences International). Baseline recordings of blood pressure and heart rate were obtained for 3 days prior to CIH/H exposure. Prior to, and during, the 28 day CIH/H exposure period daily baseline recordings of blood pressure and heart rate were recorded.
Animals were exposed to repetitive cycles of 3 minutes of mild H/H (6% O2+5% CO2+89%, N2) followed by 3 minutes of normoxia (21% O2+79% N2), repeated for 10 times per hour, 8 hr/day, for 3 or 4 weeks. The animals were exposed to CIH/H for 8 hours during light phase and to normal air during the remaining 16 hr. Unexposed animals that were exposed to normal air (21% O2+79% N2), were placed adjacent to the chambers during the exposure period to undergo similar handling, general lab conditions, and background noise as the CIH/H group.
1-2 weeks after telemetry implantation, DREADDs receptors on PVN OXT neurons were activated daily by intraperitoneal (IP) injection of clozapine-n-oxide (CNO, 1.0 mg/kg). To investigate the effects of CNO on resting BP and HR in both DREADDs-expressing and sham animals, 3 days prior to CIH/H exposure (control days) baseline BP and HR values were recorded for a 20 min period before CNO injection. Animals from each group then received an IP injection of CNO, BP and HR were recorded for 1 hr, and the animals then underwent exposure to air for 8 hr to achieve acclimation to the chambers. During the 21 days of CIH/H exposure, baseline recordings of BP and HR were obtained before CNO injection, recorded for 1 hr post CNO injection, and for the entire duration of OHM exposure.
To examine the effects of CNO on and the chronic changes to mean arterial blood pressure (MAP) over the 21 days of OHM exposure, values were recorded before and after CNO injection on control days prior to CIH exposures, and days 1, 3, 6, 9, 12, 15, 18, and 21 of CIH/H. Changes within the DREADDs-expressing animals and the sham animals were statistically analyzed by one-way ANOVA with repeated-measures followed by Bonferroni's multiple comparison test. […]

T1 sequence (P20309 whole entry Y149C/A239G, the tested form may be a part): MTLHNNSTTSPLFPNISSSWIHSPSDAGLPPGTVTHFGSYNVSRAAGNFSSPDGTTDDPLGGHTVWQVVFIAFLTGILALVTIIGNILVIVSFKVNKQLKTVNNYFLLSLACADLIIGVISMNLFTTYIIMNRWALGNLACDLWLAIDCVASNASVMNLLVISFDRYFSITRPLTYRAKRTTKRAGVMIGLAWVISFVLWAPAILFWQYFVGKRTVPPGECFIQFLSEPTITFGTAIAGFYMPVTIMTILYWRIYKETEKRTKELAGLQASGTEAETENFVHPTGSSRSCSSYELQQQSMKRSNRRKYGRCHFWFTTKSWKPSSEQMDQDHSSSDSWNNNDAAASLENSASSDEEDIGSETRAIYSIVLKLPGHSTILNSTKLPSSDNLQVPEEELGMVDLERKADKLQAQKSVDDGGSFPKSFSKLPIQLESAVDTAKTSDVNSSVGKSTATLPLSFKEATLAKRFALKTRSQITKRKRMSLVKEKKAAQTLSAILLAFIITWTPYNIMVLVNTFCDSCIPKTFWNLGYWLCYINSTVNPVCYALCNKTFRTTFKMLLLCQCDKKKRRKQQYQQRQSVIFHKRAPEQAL

Regarding `C[N+]1([O-])CCN(C2=Nc3cc(Cl)ccc3Nc3ccccc32)CC1` [CNO, clozapine-n-oxide], the “average increase in intracellular calcium in OXT-sensitive CHO cells upon photostimulation of ChR2-containing PVN fibers in the DMV” value in experiment [1] is on record as 23.4±0.03%. Also, the “MAP in DREADDs-expressing group, Day 12” value in experiment [2] (Day 12 of CIH/H, sham group 117±4.1 mmHg) stood at 105±2.6 mmHg. In addition, the “MAP in DREADDs-expressing group, Day 15” value in experiment [2] (Day 15 of CIH/H, sham group 118±2.6 mmHg) came out at 105±3.1 mmHg. Moreover, the “MAP in DREADDs-expressing group, Day 18” value in experiment [2] (Day 18 of CIH/H, sham group 122±1.1 mmHg) is 104±2.9 mmHg. Besides, the “MAP in DREADDs-expressing group, Day 21” value in experiment [2] (Day 21 of CIH/H, 104±2.6 mmHg on control days, sham group 120±0.5 mmHg) amounted to 103±3.0 mmHg.
